A word on the EC50: it is the concentration needed to bring the measured effect to its halfway point. Low values mean higher potency in that assay, high ones lower potency in that assay.

Consider one compound from ChEMBL document CHEMBL4715853 (J Med Chem, 2020).

For the experiment, the system named is Human coronavirus 229E. In words: Antiviral activity against HCoV-229E harboring GFP infected in human Huh-7 cells treated 1 hr prior to viral infection by fluorometric analysis. The format is functional, organism-based.

For the compound `CCN(CC)CCCC(C)Nc1ccnc2cc(Cl)ccc12` (stereo unspecified) [CHLOROQUINE], a half-maximal response (EC50) required 3.3 µM.
